Test results: BindingDB's records for doi:10.1016/S0960-894X(01)80688-0 (1994)

Assays:
[1] = Inhibitory activity was determined against bovine liver beta galactosidase
[2] = Inhibitory activity was determined against almonds Beta-glucosidase
[3] = Inhibitory activity was determined against Escherichia coli beta galactosidase

Row | IC50 [1] [µM] | IC50 [2] [µM] | IC50 [3] [µM] | SMILES
1 | 153 | > 300 | > 300 | OCC1(O)C(O)C(O)C2N=C(Nc3ccccc3)OC21 (stereo unspecified) [6-Hydroxymethyl-2-phenylamino-4,5,6,6a-tetrahydro-3aH-cyclopentaoxazole-4,5,6-triol]
2 | 3 | > 300 | > 300 | OCC1C(O)C(O)C2OC(Nc3ccccc3)=NC12 (stereo unspecified) [4-Hydroxymethyl-2-phenylamino-4,5,6,6a-tetrahydro-3aH-cyclopentaoxazole-5,6-diol]
